Source: patent publication US20120220562A1, “Anti-Viral Compounds” (ABBOTT LABAORATORIES, priority 2011, published 2012)

System: HCV 1b-Con1 replicon
Test: HCV 1b-Con1 replicon assay in the presence of 5% FBS
Format: cell-based
Settings: Hepatitis C virus

Structure (SMILES) | EC50
COC(=O)N[C@H](C(=O)N1CCC[C@H]1c1nc2cc([C@H]3CC[C@H](c4cc5nc([C@@H]6CCCN6C(=O)[C@@H](NC(=O)OC)C(C)C)[nH]c5cc4F)N3c3cc(F)c(N4CCC5(CC4)CC5)c(F)c3)c(F)cc2[nH]1)C(C)C [Example 6.12, methyl {(2S)-1-[(2S)-2-{5-[(2R,5R)-1-[4-(6-azaspiro[2.5]oct-6-yl)-3,5-difluorophenyl]-5-{6-fluoro-2-[(2S)-1-{(2S)-2-[(methoxycarbonyl)amino]-3-methylbutanoyl}pyrrolidin-2-yl]-1H-benzimidazol-5-yl}pyrrolidin-2-yl]-6-fluoro-1H-benzimidazol-2-yl}pyrrolidin-1-yl]-3-methyl-1-oxobutan-2-yl}carbamate] | < 0.1 nM
CCOC(=O)N[C@H](C(=O)N1CCC[C@H]1c1nc2cc([C@H]3CC[C@H](c4ccc5[nH]c([C@@H]6CCCN6C(=O)[C@@H](NC(=O)OCC)C(C)C)nc5c4)N3c3cc(F)c(N4CCC(c5ccccc5)CC4)c(F)c3)ccc2[nH]1)C(C)C [Example 3.34, ethyl {(2S)-1-[(2S)-2-{5-[(2R,5R)-1-[3,5-difluoro-4-(4-phenylpiperidin-1-yl)phenyl]-5-{2-[(2S)-1-{(2S)-2-[(ethoxycarbonyl)amino]-3-methylbutanoyl}pyrrolidin-2-yl]-1H-benzimidazol-5-yl}pyrrolidin-2-yl]-1H-benzimidazol-2-yl}pyrrolidin-1-yl]-3-methyl-1-oxobutan-2-yl}carbamate] | < 0.1 nM
COC(=O)N[C@H](C(=O)N1CCC[C@H]1c1nc2cc([C@H]3CC[C@H](c4ccc5[nH]c([C@@H]6CCCN6C(=O)[C@@H](NC(=O)OC)C(C)C)nc5c4)N3c3ccc(Cl)c(F)c3)ccc2[nH]1)C(C)C [Example 2.2, methyl {(2S)-1-[(2S)-2-{5-[(2R,5R)-1-(4-chloro-3-fluorophenyl)-5-{2-[(2S)-1-{(2S)-2-[(methoxycarbonyl)amino]-3-methylbutanoyl}pyrrolidin-2-yl]-1H-benzimidazol-5-yl}pyrrolidin-2-yl]-1H-benzimidazol-2-yl}pyrrolidin-1-yl]-3-methyl-1-oxobutan-2-yl}carbamate] | < 0.1 nM
COC(=O)N[C@H](C(=O)N1CCC[C@H]1c1nc2ccc([C@H]3CC[C@H](c4ccc5nc([C@@H]6CCCN6C(=O)[C@@H](NC(=O)OC)C(C)C)[nH]c5c4)N3c3cc(F)c(N4CCC(c5ccc(OC)cc5)CC4)c(F)c3)cc2[nH]1)C(C)C [Example 4.34, methyl {(2S)-1-[(2S)-2-{6-[(2R,5R)-1-{3,5-difluoro-4-[4-(4-methoxyphenyl)piperidin-1-yl]phenyl}-5-{2-[(2S)-1-{(2S)-2-[(methoxycarbonyl)amino]-3-methylbutanoyl}pyrrolidin-2-yl]-1H-benzimidazol-6-yl}pyrrolidin-2-yl]-1H-benzimidazol-2-yl}pyrrolidin-1-yl]-3-methyl-1-oxobutan-2-yl}carbamate] | < 0.1 nM
COC(=O)N[C@H](C(=O)N1CCC[C@H]1c1nc2cc([C@@H]3CC[C@@H](c4cc5nc([C@@H]6CCCN6C(=O)[C@@H](NC(=O)OC)C(C)C)[nH]c5cc4F)N3c3cc(F)c(N4CCN(c5c(F)cccc5F)CC4)c(F)c3)c(F)cc2[nH]1)C(C)C [Example 3.50, methyl {(2S)-1-[(2S)-2-{5-[(2S,5S)-1-{4-[4-(2,6-difluorophenyl)piperazin-1-yl]-3,5-difluorophenyl}-5-{6-fluoro-2-[(2S)-1-{(2S)-2-[(methoxycarbonyl)amino]-3-methylbutanoyl}pyrrolidin-2-yl]-1H-benzimidazol-5-yl}pyrrolidin-2-yl]-6-fluoro-1H-benzimidazol-2-yl}pyrrolidin-1-yl]-3-methyl-1-oxobutan-2-yl}carbamate] | < 0.1 nM
COC(=O)N[C@H](C(=O)N1CCC[C@H]1c1nc2ccc([C@H]3CC[C@H](c4ccc5nc([C@@H]6CCCN6C(=O)[C@@H](NC(=O)OC)C(C)C)[nH]c5c4)N3c3cc(F)c(N4CC(C)CC(C)C4)c(F)c3)cc2[nH]1)C(C)C (stereo partly drawn) [Example 5.7, methyl {(2S)-1-[(2S)-2-{6-[(2R,5R)-1-[4-(3,5-dimethylpiperidin-1-yl)-3,5-difluorophenyl]-5-{2-[(2S)-1-{(2S)-2-[(methoxycarbonyl)amino]-3-methylbutanoyl}pyrrolidin-2-yl]-1H-benzimidazol-6-yl}pyrrolidin-2-yl]-1H-benzimidazol-2-yl}pyrrolidin-1-yl]-3-methyl-1-oxobutan-2-yl}carbamate] | < 0.1 nM
COC(=O)N[C@H](C(=O)N1CCC[C@H]1c1nc2ccc([C@H]3CC[C@H](c4ccc5nc([C@@H]6CCCN6C(=O)[C@@H](NC(=O)OC)C(C)C)[nH]c5c4)N3c3ccc(N4CCC(F)(c5ccccc5)CC4)cc3)cc2[nH]1)C(C)C [Example 4.36, methyl {(2S)-1-[(2S)-2-{6-[(2R,5R)-1-[4-(4-fluoro-4-phenylpiperidin-1-yl)phenyl]-5-{2-[(2S)-1-{(2S)-2-[(methoxycarbonyl)amino]-3-methylbutanoyl}pyrrolidin-2-yl]-1H-benzimidazol-6-yl}pyrrolidin-2-yl]-1H-benzimidazol-2-yl}pyrrolidin-1-yl]-3-methyl-1-oxobutan-2-yl}carbamate] | < 0.1 nM
COC(=O)N[C@H](C(=O)N1CCC[C@H]1c1nc2cc([C@H]3CC[C@H](c4ccc5[nH]c([C@@H]6CCCN6C(=O)[C@@H](NC(=O)OC)C(C)C)nc5c4)N3c3cc(F)c(N4CCC(F)(F)CC4)c(F)c3)ccc2[nH]1)C(C)C [Example 1.5, methyl {(2S)-1-[(2S)-2-{5-[(2R,5R)-1-[4-(4,4-difluoropiperidin-1-yl)-3,5-difluorophenyl]-5-{2-[(2S)-1-{(2S)-2-[(methoxycarbonyl)amino]-3-methylbutanoyl}pyrrolidin-2-yl]-1H-benzimidazol-5-yl}pyrrolidin-2-yl]-1H-benzimidazol-2-yl}pyrrolidin-1-yl]-3-methyl-1-oxobutan-2-yl}carbamate] | < 0.1 nM
COC(=O)N[C@H](C(=O)N1CCC[C@H]1c1nc2c(F)c([C@H]3CC[C@@H](c4ccc5nc([C@@H]6CCCN6C(=O)[C@@H](NC(=O)OC)C(C)C)[nH]c5c4F)N3c3ccc(C(C)(C)C)cc3)ccc2[nH]1)C(C)C [Example 6.4, methyl {(2S)-1-[(2S)-2-{5-[(2R,5S)-1-(4-tert-butylphenyl)-5-{7-fluoro-2-[(2S)-1-{(2S)-2-[(methoxycarbonyl)amino]-3-methylbutanoyl}pyrrolidin-2-yl]-1H-benzimidazol-6-yl}pyrrolidin-2-yl]-4-fluoro-1H-benzimidazol-2-yl}pyrrolidin-1-yl]-3-methyl-1-oxobutan-2-yl}carbamate] | < 0.1 nM
COC(=O)N[C@H](C(=O)N1CCC[C@H]1c1nc2ccc([C@H]3CC[C@H](c4ccc5nc([C@@H]6CCCN6C(=O)[C@@H](NC(=O)OC)C(C)C)[nH]c5c4)N3c3cc(F)c(C4CC4)c(F)c3)cc2[nH]1)C(C)C [Example 4.15, methyl {(2S)-1-[(2S)-2-{6-[(2R,5R)-1-(4-cyclopropyl-3,5-difluorophenyl)-5-{2-[(2S)-1-{(2S)-2-[(methoxycarbonyl)amino]-3-methylbutanoyl}pyrrolidin-2-yl]-1H-benzimidazol-6-yl}pyrrolidin-2-yl]-1H-benzimidazol-2-yl}pyrrolidin-1-yl]-3-methyl-1-oxobutan-2-yl}carbamate] | < 0.1 nM
COC(=O)N[C@H](C(=O)N1CCC[C@H]1c1nc2c(F)c([C@H]3CC[C@H](c4ccc5nc([C@@H]6CCCN6C(=O)[C@@H](NC(=O)OC)C(C)C)[nH]c5c4F)N3c3ccc(C(C)(C)C)cc3)ccc2[nH]1)C(C)C [Example 6.3, methyl {(2S)-1-[(2S)-2-{5-[(2R,5R)-1-(4-tert-butylphenyl)-5-{7-fluoro-2-[(2S)-1-{(2S)-2-[(methoxycarbonyl)amino]-3-methylbutanoyl}pyrrolidin-2-yl]-1H-benzimidazol-6-yl}pyrrolidin-2-yl]-4-fluoro-1H-benzimidazol-2-yl}pyrrolidin-1-yl]-3-methyl-1-oxobutan-2-yl}carbamate] | < 0.1 nM
COC(=O)N[C@H](C(=O)N1CCC[C@H]1c1nc2cc([C@H]3CC[C@H](c4ccc5[nH]c([C@@H]6CCCN6C(=O)[C@@H](NC(=O)OC)C6CCOCC6)nc5c4)N3c3ccc(C(C)(C)C)cc3)ccc2[nH]1)C1CCOCC1 [Example 3.6, dimethyl ([(2R,5R)-1-(4-tert-butylphenyl)pyrrolidine-2,5-diyl]bis{1H-benzimidazole-5,2-diyl(2S)pyrrolidine-2,1-diyl[(1S)-2-oxo-1-(tetrahydro-2H-pyran-4-yl)ethane-2,1-diyl]})biscarbamate] | < 0.1 nM
COC(=O)N[C@H](C(=O)N1CCC[C@H]1c1nc2cc([C@H]3CC[C@H](c4ccc5[nH]c([C@@H]6CCCN6C(=O)[C@@H](NC(=O)OC)C(C)C)nc5c4)N3c3ccnc(F)c3)ccc2[nH]1)C(C)C [Example 1.4, methyl {(2S)-1-[(2S)-2-{5-[(2R,5R)-1-(2-fluoropyridin-4-yl)-5-{2-[(2S)-1-{(2S)-2-[(methoxycarbonyl)amino]-3-methylbutanoyl}pyrrolidin-2-yl]-1H-benzimidazol-5-yl}pyrrolidin-2-yl]-1H-benzimidazol-2-yl}pyrrolidin-1-yl]-3-methyl-1-oxobutan-2-yl}carbamate] | 0.1 to 1 nM
COC(=O)N[C@H](C(=O)N1CCC[C@H]1c1nc2cc([C@H]3CC[C@H](c4cc5nc([C@@H]6CCCN6C(=O)[C@@H](NC(=O)OC)C(C)C)[nH]c5cc4F)N3c3cc(F)c(N4CCC(C(F)(c5ccccc5)c5ccccc5)CC4)c(F)c3)c(F)cc2[nH]1)C(C)C [Example 4.37, methyl {(2S)-1-[(2S)-2-{5-[(2R,5R)-1-(3,5-difluoro-4-{4-[fluoro(diphenyl)methyl]piperidin-1-yl}phenyl)-5-{6-fluoro-2-[(2S)-1-{(2S)-2-[(methoxycarbonyl)amino]-3-methylbutanoyl}pyrrolidin-2-yl]-1H-benzimidazol-5-yl}pyrrolidin-2-yl]-6-fluoro-1H-benzimidazol-2-yl}pyrrolidin-1-yl]-3-methyl-1-oxobutan-2-yl}carbamate] | < 0.1 nM
